Measured values from patent publication US9636418B2 (priority 2013, dated 2017).
Where “and” joins values, the source holds several entries; their conditions need not be identical. Equal entries are not always repeated.

Experiments:
Assay in all cases: cell-based
[1] = molecular target: hNav1.4 (Homo sapiens, UniProt P35499); conditions: for IC50: IonWorks Quattro, read-out: IC50 Nav1.4
[2] = molecular target: hNav1.7 (Homo sapiens, UniProt Q15858); conditions: IonWorks Quattro; read-out: IC50 Nav1.7
[3] = molecular target: hNav1.3 (Homo sapiens, UniProt Q9NY46); conditions: IonWorks Quattro; read-out: IC50 Nav1.3
[4] = molecular target: hNav1.5 (Homo sapiens, UniProt Q14524); conditions: IonWorks Quattro; read-out: IC50 Nav1.5
Sequence of hNav1.5 (Q14524 whole entry): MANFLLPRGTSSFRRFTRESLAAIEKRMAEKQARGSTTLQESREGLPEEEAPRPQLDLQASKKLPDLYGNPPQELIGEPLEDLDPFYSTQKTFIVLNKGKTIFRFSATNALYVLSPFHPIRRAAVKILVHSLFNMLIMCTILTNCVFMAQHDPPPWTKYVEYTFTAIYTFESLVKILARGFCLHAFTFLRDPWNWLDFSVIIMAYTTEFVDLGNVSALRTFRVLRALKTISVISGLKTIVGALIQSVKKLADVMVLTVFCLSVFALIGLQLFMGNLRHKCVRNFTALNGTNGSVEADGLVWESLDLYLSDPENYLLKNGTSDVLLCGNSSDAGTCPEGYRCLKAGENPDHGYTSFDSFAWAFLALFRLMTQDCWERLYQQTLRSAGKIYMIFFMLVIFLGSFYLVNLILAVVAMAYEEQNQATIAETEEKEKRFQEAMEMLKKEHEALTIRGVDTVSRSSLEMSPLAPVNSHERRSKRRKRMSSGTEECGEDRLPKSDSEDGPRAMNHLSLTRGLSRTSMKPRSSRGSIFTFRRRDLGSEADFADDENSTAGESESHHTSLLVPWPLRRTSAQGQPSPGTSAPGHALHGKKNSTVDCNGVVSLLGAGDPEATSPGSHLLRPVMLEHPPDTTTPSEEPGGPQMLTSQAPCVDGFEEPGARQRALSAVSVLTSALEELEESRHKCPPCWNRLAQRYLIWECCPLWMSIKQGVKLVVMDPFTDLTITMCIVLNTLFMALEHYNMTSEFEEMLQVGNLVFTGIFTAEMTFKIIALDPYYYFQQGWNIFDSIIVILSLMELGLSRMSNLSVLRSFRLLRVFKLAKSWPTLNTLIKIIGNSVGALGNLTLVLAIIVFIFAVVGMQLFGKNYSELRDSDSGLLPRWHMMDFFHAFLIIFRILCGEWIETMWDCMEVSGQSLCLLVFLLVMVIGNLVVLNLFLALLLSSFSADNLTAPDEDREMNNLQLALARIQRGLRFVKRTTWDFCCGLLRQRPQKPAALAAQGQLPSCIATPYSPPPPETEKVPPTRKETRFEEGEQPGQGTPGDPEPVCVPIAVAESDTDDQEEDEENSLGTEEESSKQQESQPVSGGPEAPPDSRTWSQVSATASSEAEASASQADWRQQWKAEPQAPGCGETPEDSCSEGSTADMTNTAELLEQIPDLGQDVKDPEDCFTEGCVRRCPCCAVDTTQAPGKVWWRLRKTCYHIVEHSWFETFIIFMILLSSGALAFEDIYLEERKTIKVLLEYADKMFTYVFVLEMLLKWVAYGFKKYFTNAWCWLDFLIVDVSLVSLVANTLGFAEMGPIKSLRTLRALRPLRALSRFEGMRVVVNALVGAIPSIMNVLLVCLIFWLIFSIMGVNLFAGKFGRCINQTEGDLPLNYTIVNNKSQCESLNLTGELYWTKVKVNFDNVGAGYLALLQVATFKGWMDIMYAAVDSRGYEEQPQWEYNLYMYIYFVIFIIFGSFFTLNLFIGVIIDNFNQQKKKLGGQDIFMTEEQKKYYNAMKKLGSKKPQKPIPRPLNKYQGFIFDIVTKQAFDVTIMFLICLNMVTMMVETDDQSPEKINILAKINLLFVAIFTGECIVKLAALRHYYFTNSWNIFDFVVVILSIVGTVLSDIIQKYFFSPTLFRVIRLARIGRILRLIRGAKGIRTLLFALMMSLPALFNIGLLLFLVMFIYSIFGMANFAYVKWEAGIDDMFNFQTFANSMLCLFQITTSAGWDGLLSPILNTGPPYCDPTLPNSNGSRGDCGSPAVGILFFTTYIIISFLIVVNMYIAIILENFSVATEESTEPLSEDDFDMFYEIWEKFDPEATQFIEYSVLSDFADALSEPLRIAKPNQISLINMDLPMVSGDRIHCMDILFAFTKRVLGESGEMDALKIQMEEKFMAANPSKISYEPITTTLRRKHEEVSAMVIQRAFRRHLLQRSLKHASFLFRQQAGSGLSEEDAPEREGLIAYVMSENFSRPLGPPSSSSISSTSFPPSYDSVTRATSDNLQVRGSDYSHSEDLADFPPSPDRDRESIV

Sequence of hNav1.7 (Q15858 whole entry): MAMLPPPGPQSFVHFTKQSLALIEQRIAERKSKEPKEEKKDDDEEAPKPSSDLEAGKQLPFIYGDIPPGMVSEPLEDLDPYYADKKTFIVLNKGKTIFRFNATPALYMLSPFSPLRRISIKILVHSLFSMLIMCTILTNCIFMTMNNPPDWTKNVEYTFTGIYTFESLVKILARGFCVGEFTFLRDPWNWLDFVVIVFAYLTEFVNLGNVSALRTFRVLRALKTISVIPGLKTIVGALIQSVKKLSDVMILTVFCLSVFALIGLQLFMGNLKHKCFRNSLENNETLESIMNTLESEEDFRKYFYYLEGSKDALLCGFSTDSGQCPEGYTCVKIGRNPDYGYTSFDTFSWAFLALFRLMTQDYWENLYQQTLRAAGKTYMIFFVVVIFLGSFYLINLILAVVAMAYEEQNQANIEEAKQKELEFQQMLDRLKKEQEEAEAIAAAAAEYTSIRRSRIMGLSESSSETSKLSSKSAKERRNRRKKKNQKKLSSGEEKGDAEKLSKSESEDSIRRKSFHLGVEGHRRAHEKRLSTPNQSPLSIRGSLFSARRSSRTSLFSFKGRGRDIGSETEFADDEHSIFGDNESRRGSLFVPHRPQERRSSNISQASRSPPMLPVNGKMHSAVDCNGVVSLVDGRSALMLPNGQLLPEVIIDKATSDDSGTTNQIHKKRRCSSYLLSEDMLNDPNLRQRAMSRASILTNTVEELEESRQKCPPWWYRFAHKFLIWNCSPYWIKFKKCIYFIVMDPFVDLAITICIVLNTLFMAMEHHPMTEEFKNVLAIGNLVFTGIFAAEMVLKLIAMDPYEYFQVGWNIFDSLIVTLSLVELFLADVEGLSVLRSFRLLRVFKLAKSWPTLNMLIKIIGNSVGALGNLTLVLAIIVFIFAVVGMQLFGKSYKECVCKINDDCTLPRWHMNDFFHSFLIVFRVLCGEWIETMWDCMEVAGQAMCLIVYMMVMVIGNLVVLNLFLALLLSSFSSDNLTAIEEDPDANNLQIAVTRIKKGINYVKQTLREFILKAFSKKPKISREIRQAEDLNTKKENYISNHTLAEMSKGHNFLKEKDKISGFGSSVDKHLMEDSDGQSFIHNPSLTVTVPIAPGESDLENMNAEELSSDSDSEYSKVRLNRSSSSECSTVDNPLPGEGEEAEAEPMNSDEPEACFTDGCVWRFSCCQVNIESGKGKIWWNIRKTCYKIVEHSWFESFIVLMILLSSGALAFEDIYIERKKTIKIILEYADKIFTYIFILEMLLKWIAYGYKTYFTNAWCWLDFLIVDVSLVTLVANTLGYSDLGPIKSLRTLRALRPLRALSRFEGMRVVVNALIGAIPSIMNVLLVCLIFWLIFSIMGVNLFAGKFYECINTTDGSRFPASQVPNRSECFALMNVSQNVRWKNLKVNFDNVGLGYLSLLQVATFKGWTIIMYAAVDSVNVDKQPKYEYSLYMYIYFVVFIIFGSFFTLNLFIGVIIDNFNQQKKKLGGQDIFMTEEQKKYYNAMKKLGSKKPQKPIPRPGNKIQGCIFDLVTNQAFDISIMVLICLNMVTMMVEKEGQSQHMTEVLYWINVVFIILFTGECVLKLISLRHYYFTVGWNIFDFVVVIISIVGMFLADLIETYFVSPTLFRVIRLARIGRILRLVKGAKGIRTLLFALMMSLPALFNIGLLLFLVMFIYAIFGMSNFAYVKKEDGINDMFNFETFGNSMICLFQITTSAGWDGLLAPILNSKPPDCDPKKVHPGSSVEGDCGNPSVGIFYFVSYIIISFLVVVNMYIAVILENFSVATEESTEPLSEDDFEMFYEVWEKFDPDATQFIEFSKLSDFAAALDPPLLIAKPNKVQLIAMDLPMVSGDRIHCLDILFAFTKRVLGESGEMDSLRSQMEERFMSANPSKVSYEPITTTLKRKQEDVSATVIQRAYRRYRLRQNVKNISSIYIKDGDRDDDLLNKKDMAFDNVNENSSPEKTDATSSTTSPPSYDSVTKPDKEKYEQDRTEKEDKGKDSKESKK

Structure (SMILES)	IC50 [1] [µM]	IC50 [2]	IC50 [3] [µM]	IC50 [4] [µM]	Nav1.4/Nav1.7 ([1]; ratio of IonWorks Quattro IC50 values)
CC[C@H](C)[C@H](NC(=O)[C@H](Cc1ccc(O)cc1)NC(=O)[C@H](CCCCN)NC(=O)[C@H](CCCNC(=N)N)NC(=O)[C@@H]1CSSC[C@@H]2NC(=O)[C@H](C)NC(=O)[C@H](CCCNC(=N)N)NC(=O)[C@H](CCCCN)NC(=O)[C@H](CO)NC(=O)[C@H](CC(=O)O)NC(=O)[C@@H]3CSSC[C@H](NC(=O)[C@H](CCC(=O)O)NC(=O)[C@H](CC(C)C)NC(=O)CNC(=O)[C@H](CCC(=O)O)NC(=O)[C@H](CSSC[C@H](NC(=O)[C@@H](N)Cc4ccc(O)cc4)C(=O)N[C@@H](CCC(N)=O)C(=O)N[C@@H](CCCCN)C(=O)N[C@@H](Cc4c[nH]c5ccccc45)C(=O)N[C@@H](CCSC)C(=O)N[C@@H](Cc4c[nH]c5ccccc45)C(=O)N[C@@H]([C@@H](C)O)C(=O)N3)NC2=O)C(=O)N[C@@H](CCCCN)C(=O)N[C@@H](CC(C)C)C(=O)N[C@@H](CC(N)=O)C(=O)N1)C(N)=O [compound 229]	> 5	> 5 µM	> 5	> 5	
CSCC[C@@H]1NC(=O)[C@H](Cc2c[nH]c3ccccc23)NC(=O)[C@H](CCCCN)NC(=O)[C@H](CCC(N)=O)NC(=O)[C@@H](NC(=O)[C@@H](N)Cc2ccc(O)cc2)CSSC[C@@H]2NC(=O)[C@@H]3CSSC[C@@H](C(=O)N[C@@H](CCCNC(=N)N)C(=O)N[C@@H](CCCCN)C(=O)N[C@@H](Cc4ccc(O)cc4)C(=O)N[C@@H](CCCNC(N)=O)C(N)=O)NC(=O)[C@H](Cc4c[nH]c5ccccc45)NC(=O)[C@H](CC(C)C)NC(=O)[C@H](CCCCN)NC(=O)[C@H](CSSC[C@H](NC(=O)[C@H]([C@@H](C)O)NC(=O)[C@H](Cc4c[nH]c5ccccc45)NC1=O)C(=O)N[C@@H](CC(=O)O)C(=O)N[C@@H](CO)C(=O)N[C@@H](CCCCN)C(=O)N[C@@H](CCCNC(=N)N)C(=O)N[C@@H](C)C(=O)N3)NC(=O)[C@H](CCC(=O)O)NC(=O)[C@H](CC(C)C)NC(=O)CNC(=O)[C@H](CCC(=O)O)NC2=O [compound 241]	> 5	1.2 µM	> 5	> 5	
CSCC[C@@H]1NC(=O)[C@H](Cc2c[nH]c3ccccc23)NC(=O)[C@H](CCCCN)NC(=O)[C@H](CCC(N)=O)NC(=O)[C@@H](NC(=O)[C@@H](N)Cc2ccc(O)cc2)CSSC[C@@H]2NC(=O)[C@@H]3CSSC[C@@H](C(=O)N[C@@H](CCCNC(=N)N)C(=O)N[C@@H](CCCCN)C(=O)N[C@@H](Cc4ccc(O)cc4)C(=O)N[C@@H](CCCCN)C(N)=O)NC(=O)[C@H](Cc4c[nH]c5ccccc45)NC(=O)[C@H](CC(C)C)NC(=O)[C@H](CCCCN)NC(=O)[C@H](CSSC[C@H](NC(=O)[C@H]([C@@H](C)O)NC(=O)[C@H](Cc4c[nH]c5ccccc45)NC1=O)C(=O)N[C@@H](CC(=O)O)C(=O)N[C@@H](CO)C(=O)N[C@@H](CCCCN)C(=O)N[C@@H](CCCNC(=N)N)C(=O)N[C@@H](C)C(=O)N3)NC(=O)[C@H](CCC(=O)O)NC(=O)[C@H](CC(C)C)NC(=O)CNC(=O)[C@H](CCC(=O)O)NC2=O [compound 242]	> 5	0.45 µM and 0.63 µM	> 5	> 5	
CSCC[C@@H]1NC(=O)[C@H](Cc2c[nH]c3ccccc23)NC(=O)[C@H](CCCCN)NC(=O)[C@H](CCC(N)=O)NC(=O)[C@@H](NC(=O)[C@@H](N)Cc2ccc(O)cc2)CSSC[C@@H]2NC(=O)[C@@H]3CSSC[C@@H](C(=O)N[C@@H](CCCNC(=N)N)C(=O)N[C@@H](CCCCN)C(=O)N[C@@H](Cc4ccc(O)cc4)C(=O)N[C@@H](CC(N)=O)C(N)=O)NC(=O)[C@H](Cc4c[nH]c5ccccc45)NC(=O)[C@H](CC(C)C)NC(=O)[C@H](CCCCN)NC(=O)[C@H](CSSC[C@H](NC(=O)[C@H]([C@@H](C)O)NC(=O)[C@H](Cc4c[nH]c5ccccc45)NC1=O)C(=O)N[C@@H](CC(=O)O)C(=O)N[C@@H](CO)C(=O)N[C@@H](CCCCN)C(=O)N[C@@H](CCCNC(=N)N)C(=O)N[C@@H](C)C(=O)N3)NC(=O)[C@H](CCC(=O)O)NC(=O)[C@H](CC(C)C)NC(=O)CNC(=O)[C@H](CCC(=O)O)NC2=O [compound 243]	> 5	0.52 µM	> 5	> 5	
CSCC[C@@H]1NC(=O)[C@H](Cc2c[nH]c3ccccc23)NC(=O)[C@H](CCCCN)NC(=O)[C@H](CCC(N)=O)NC(=O)[C@@H](NC(=O)[C@@H](N)Cc2ccc(O)cc2)CSSC[C@@H]2NC(=O)[C@@H]3CSSC[C@@H](C(=O)N[C@@H](CCCNC(=N)N)C(=O)N[C@@H](CCCCN)C(=O)N[C@@H](Cc4ccc(O)cc4)C(=O)N[C@@H](CO)C(N)=O)NC(=O)[C@H](Cc4c[nH]c5ccccc45)NC(=O)[C@H](CC(C)C)NC(=O)[C@H](CCCCN)NC(=O)[C@H](CSSC[C@H](NC(=O)[C@H]([C@@H](C)O)NC(=O)[C@H](Cc4c[nH]c5ccccc45)NC1=O)C(=O)N[C@@H](CC(=O)O)C(=O)N[C@@H](CO)C(=O)N[C@@H](CCCCN)C(=O)N[C@@H](CCCNC(=N)N)C(=O)N[C@@H](C)C(=O)N3)NC(=O)[C@H](CCC(=O)O)NC(=O)[C@H](CC(C)C)NC(=O)CNC(=O)[C@H](CCC(=O)O)NC2=O [compound 244]	> 5	0.34 µM	> 5	> 5	
CSCC[C@@H]1NC(=O)[C@H](Cc2c[nH]c3ccccc23)NC(=O)[C@H](CCCCN)NC(=O)[C@H](CCC(N)=O)NC(=O)[C@@H](NC(=O)[C@@H](N)Cc2ccc(O)cc2)CSSC[C@@H]2NC(=O)[C@@H]3CSSC[C@@H](C(=O)N[C@@H](CCCNC(=N)N)C(=O)N[C@@H](CCCCN)C(=O)N[C@@H](Cc4ccc(O)cc4)C(=O)N[C@@H](CCC(=O)O)C(N)=O)NC(=O)[C@H](Cc4c[nH]c5ccccc45)NC(=O)[C@H](CC(C)C)NC(=O)[C@H](CCCCN)NC(=O)[C@H](CSSC[C@H](NC(=O)[C@H]([C@@H](C)O)NC(=O)[C@H](Cc4c[nH]c5ccccc45)NC1=O)C(=O)N[C@@H](CC(=O)O)C(=O)N[C@@H](CO)C(=O)N[C@@H](CCCCN)C(=O)N[C@@H](CCCNC(=N)N)C(=O)N[C@@H](C)C(=O)N3)NC(=O)[C@H](CCC(=O)O)NC(=O)[C@H](CC(C)C)NC(=O)CNC(=O)[C@H](CCC(=O)O)NC2=O [compound 245]	> 5	4.7 µM	> 5	> 5	
CCCC[C@@H]1NC(=O)[C@H](Cc2c[nH]c3ccccc23)NC(=O)[C@H](CCCCN)NC(=O)[C@H](CCC(N)=O)NC(=O)[C@@H](NC(=O)[C@@H](N)Cc2ccc(O)cc2)CSSC[C@@H]2NC(=O)[C@@H]3CSSC[C@@H](C(=O)N[C@@H](CCCNC(=N)N)C(=O)N[C@@H](CCCCN)C(=O)N[C@H](C(=O)N[C@H](C(N)=O)[C@@H](C)CC)[C@@H](C)CC)NC(=O)[C@H](Cc4c[nH]c5ccccc45)NC(=O)[C@H](CC(C)C)NC(=O)[C@H](CCCCN)NC(=O)[C@H](CSSC[C@H](NC(=O)[C@H](Cc4cn(CCCOCCOCCOCCOCCOCCOCCOCCOCCOCCOCCN)nn4)NC(=O)[C@H](Cc4c[nH]c5ccccc45)NC1=O)C(=O)N[C@@H](CC(=O)O)C(=O)N[C@@H](CO)C(=O)N[C@@H](CCCCN)C(=O)N[C@@H](CCCNC(=N)N)C(=O)N[C@@H](C)C(=O)N3)NC(=O)[C@H](CCCNC(=N)N)NC(=O)[C@H](CC(C)C)NC(=O)CNC(=O)[C@H](CCC(=O)O)NC2=O [compound 254]	> 7	6.4 µM	> 7	> 7	
CCCC[C@@H]1NC(=O)[C@H](Cc2c[nH]c3ccccc23)NC(=O)[C@H](CCCCN)NC(=O)[C@H](CCC(N)=O)NC(=O)[C@@H](NC(=O)[C@@H](N)Cc2ccc(O)cc2)CSSC[C@@H]2NC(=O)[C@@H]3CSSC[C@@H](C(=O)N[C@@H](CCCNC(=N)N)C(=O)N[C@@H](CCCCN)C(=O)N[C@H](C(=O)N[C@H](C(N)=O)[C@@H](C)CC)[C@@H](C)CC)NC(=O)[C@H](Cc4c[nH]c5ccccc45)NC(=O)[C@H](CC(C)C)NC(=O)[C@H](CCCCN)NC(=O)[C@H](CSSC[C@H](NC(=O)[C@H]([C@@H](C)O)NC(=O)[C@H](Cc4c[nH]c5ccccc45)NC1=O)C(=O)N[C@@H](CC(=O)O)C(=O)N[C@@H](CO)C(=O)N[C@@H](CCCCN)C(=O)N[C@@H](CCCNC(=N)N)C(=O)N[C@@H](C)C(=O)N3)NC(=O)[C@H](CCC(=O)O)NC(=O)[C@H](CC(C)C)NC(=O)CNC(=O)[C@H](CCC(=O)O)NC2=O [compound 273]	> 5	0.19 µM	4.1	> 5	
CC[C@H](C)[C@H](NC(=O)[C@H](Cc1ccc(O)cc1)NC(=O)[C@H](CCCCN)NC(=O)[C@H](CCCNC(=N)N)NC(=O)[C@@H]1CSSC[C@@H]2NC(=O)[C@H](C)NC(=O)[C@H](CCCNC(=N)N)NC(=O)[C@H](CCCCN)NC(=O)[C@H](CO)NC(=O)[C@H](CC(=O)O)NC(=O)[C@@H]3CSSC[C@H](NC(=O)[C@H](CCCNC(=N)N)NC(=O)[C@H](CC(C)C)NC(=O)CNC(=O)[C@H](CCC(=O)O)NC(=O)[C@H](CSSC[C@H](NC(=O)[C@@H](N)CCC(=O)O)C(=O)N[C@@H](CCC(N)=O)C(=O)N[C@@H](CCCCN)C(=O)N[C@@H](Cc4c[nH]c5ccccc45)C(=O)N[C@@H](CCSC)C(=O)N[C@@H](Cc4c[nH]c5ccccc45)C(=O)N[C@@H]([C@@H](C)O)C(=O)N3)NC2=O)C(=O)N[C@@H](CCCCN)C(=O)N[C@@H](CC(C)C)C(=O)N[C@@H](Cc2c[nH]c3ccccc23)C(=O)N1)C(N)=O [compound 278]	0.7	0.046 µM	0.3	> 5	16
